# Laboratory results taken from article PMC4862498, “PI4 Kinase Is a Prophylactic but Not Radical Curative Target in Plasmodium vivax-Type Malaria Parasites” (Antimicrobial Agents and Chemotherapy, 2016).
# Assays:
# [1] = set-up: species or system CD-1 mice; conditions: mouse, in vivo
# Procedure: Details of in vivo PK studies of KDU691 and LMV599 in CD-1 mice and monkeys can be found in the supplemental material.
# Clinical chemistry and hematology
# For the clinical analysis serum from 1 mL of clotted blood was analysed using the Cobas Integra 400 plus fully automated chemistry analyser. The following clinical parameters were determined: Alkaline phosphatase; Alanine Aminotransferase; Albumin: Aspartate aminotransfeasr; Bilirubin; Calcium; Cholesterol; Creatine kinase; Creatinine; C-reactive protein: Iron; Phosphate; Gamma-glutamyl transpeptidase; Glucose; Hemoglobin; Potassium; Lactate dehydrogenase; Sodium; Total protein; Urea Haematological parameters were determined from 1 mL EDTA-blood with a Sysmex XT-2000iV automated system. The following hematological parameters were determined: Basophilic granulocytes; Eosinophilic granulocytes; Erythrocytes; Hematocrit; Leucocytes; Leucocyte differentiation; Lymphocytes; Mean corpusculair hemoglobin; Mean corpusculair hemoglobin concentration; Mean corpusculair volume; Neutrophilic granulocytes; Red cell distribution width; Thrombocytes […]
# For LC/MS/MS analysis, 50 µL of plasma samples were precipitated using 180 µL of acetonitrile:methanol:acetic acid (90:9.8:0.2) containing either related compound or warfarin as internal standard. After vortexing and centrifuging the mixture, the supernatant was removed and 5 µL of sample analyzed. […] In addition, quality control samples with three different concentrations were prepared in respective blank matrix and analyzed together with the unknown samples for validation purposes. Analyte quantitation was performed by LC/MS/MS using optimized conditions for each compound. […]
# B), 3.92 – 4.0 min (85 – 35 % B) and 4.0 – 4.75 min (35 % B), with a flow rate of 1.0 mL/min, and a run time of 4.75 min. […] The most intense MRM transition (420.2/269) was used for quantitation using electrospray ionization in the positive mode. […]
# [2] = test system: P. cynomolgi hypnozoites in primary rhesus hepatocytes; experiment: In vitro liver-stage drug assay with P. cynomolgi, small forms (hypnozoites); type: cell-based, Plasmodium cynomolgi; conditions: compound exposure 6 days, mean of several (9) independent assays, read-out: IC50 against hypnozoites (small forms)
# Procedure: In vitro infections of primary rhesus hepatocytes with P. cynomolgi sporozoites were performed according to methods described previously by Zeeman et al. ([10]). At day 6 postinfection (p.i.), the assay mixtures were fixed and stained with anti-P. cynomolgi Hsp70 rabbit antiserum and a fluorescein isothiocyanate (FITC)-labeled secondary antibody (goat anti-rabbit). Plates were analyzed with the Operetta high-content imaging system, differentially counting hypnozoites and developing extraerythrocytic forms (EEFs), based on parasite size ([10]).
# In vitro activity against P. cynomolgi liver stages was determined for both compounds. The numbers of small (hypnozoites) and large (developing EEFs) parasites were determined by using Operetta and image analysis of primary rhesus hepatocyte cultures infected with P. cynomolgi sporozoites and exposed to the compound for 6 days ([10]). […] IC50s were determined by using the least-squares nonlinear regression method (Prism) for small and large parasites. Data from several independent experiments were used to calculate the IC50s for the two compounds.
smiles,measurement,setting,value
CNC(=O)c1ccc(-c2cnc3cnc(C(=O)N(C)c4ccc(Cl)cc4)cn23)cc1 [KDU691],"compound partitioning in the liver, Cmax over plasma",[1],1.7 ×
same,"compound partitioning in the liver, exposure over plasma",[1],3.1 ×
same,F (oral bioavailability),"[1]; po, 25 mg/kg",60%
same,IC50,[2],180 ± 210 nM
